Columns and labels:
EGFR Del19/T790M/C797S = EGFR Del19/T790M/C797S (Homo sapiens, UniProt P00533, C797S/T790M, form not given); experiment: Enzyme IC50, EGFR Del19/T790M/C797S; format: biochemical
BaF3-EGFR (WT) cells = experiment: Inhibitory activity on Ba/F3 cell proliferation (CellTiter-Glo, 72 hours); format: cell-based; settings: Ba/F3 cells expressing EGFR WT
Method: (§1) The following experiments were performed to evaluate the inhibitory activity of the compound represented by Chemical Formula 1 according to the present invention on the proliferation of Ba/F3 cells expressing EGFR mutants.
(§2) BaF3-EGFR (WT) and BaF3-EGFR (Del19/T790M/C797S) cells were seeded in a clear bottom white 96-well plate at a density of 3×10^3/100 μl/well, and then 0.5 μl/well of the culture medium, containing the compounds at 12 concentrations (0.00001-2 mM) serially diluted in 3 folds and the DMSO control, was added to a final concentration of 0.00005-10 μM, followed by culturing in a 37° C. CO2 incubator for 72 hours. After 72 hours, the plates treated with the compounds were taken out, treated with 100 μl/well of CellTiter-Glo® 2.0 Assay (Promega) solution, and mixed well. After mixing well at room temperature for about 10 minutes, […] was measured using a microplate reader. As to Data, GI50 (μM) values were calculated using GraphPad Prism 8.3.0 (GraphPad software Inc., San Diego) as percentages in proportion to vehicle-based treated cells. The result values were calculated as a cell growth rate (%) compared to the control group. A graph was created using the GraphPad Prism version 5.0 program, and GI50 (μM) values were calculated.

[1] = system: BaF3-EGFR (Del19/T790M/C797S) cells; experiment: as above; format: cell-based; settings: Ba/F3 cells expressing EGFR Del19/T790M/C797S
Method: as §1, §2

EGFR Del19/T790M/C797S, sequence (P00533 25-1210 T790M/C797S, form open): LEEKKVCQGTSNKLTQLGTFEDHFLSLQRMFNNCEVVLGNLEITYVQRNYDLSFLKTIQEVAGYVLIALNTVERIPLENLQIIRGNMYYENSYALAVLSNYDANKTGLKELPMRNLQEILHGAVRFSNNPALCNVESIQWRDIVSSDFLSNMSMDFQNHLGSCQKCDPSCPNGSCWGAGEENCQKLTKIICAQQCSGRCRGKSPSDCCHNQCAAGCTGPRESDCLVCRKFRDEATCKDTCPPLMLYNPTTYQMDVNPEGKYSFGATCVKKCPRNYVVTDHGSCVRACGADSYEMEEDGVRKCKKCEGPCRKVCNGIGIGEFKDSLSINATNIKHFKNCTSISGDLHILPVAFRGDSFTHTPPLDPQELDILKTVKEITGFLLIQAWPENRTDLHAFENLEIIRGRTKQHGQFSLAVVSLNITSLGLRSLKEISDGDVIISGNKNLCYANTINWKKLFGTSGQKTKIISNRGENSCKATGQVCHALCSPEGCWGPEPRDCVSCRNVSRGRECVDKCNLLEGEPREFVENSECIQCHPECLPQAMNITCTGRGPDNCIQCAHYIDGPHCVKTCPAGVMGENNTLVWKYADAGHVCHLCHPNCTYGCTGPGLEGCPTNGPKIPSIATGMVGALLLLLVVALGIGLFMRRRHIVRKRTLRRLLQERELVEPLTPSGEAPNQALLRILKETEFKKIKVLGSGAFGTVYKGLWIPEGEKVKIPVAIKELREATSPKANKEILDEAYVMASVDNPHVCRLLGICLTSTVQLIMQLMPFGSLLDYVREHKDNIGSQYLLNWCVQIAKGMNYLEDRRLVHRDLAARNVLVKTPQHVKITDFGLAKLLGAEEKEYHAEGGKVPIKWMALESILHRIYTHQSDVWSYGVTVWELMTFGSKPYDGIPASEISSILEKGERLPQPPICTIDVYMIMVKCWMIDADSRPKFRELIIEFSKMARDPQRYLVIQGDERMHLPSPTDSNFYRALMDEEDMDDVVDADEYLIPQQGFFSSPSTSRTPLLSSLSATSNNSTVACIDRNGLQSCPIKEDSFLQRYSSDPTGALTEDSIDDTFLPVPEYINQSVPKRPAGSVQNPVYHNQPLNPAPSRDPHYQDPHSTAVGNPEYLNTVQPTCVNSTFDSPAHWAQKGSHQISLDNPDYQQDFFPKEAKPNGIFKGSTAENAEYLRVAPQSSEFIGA

Row | Structure (SMILES) | IC50 (EGFR Del19/T790M/C797S) | GI50 (BaF3-EGFR (WT) cells) | GI50 [1]
1 | Cn1cc(-c2cc(Nc3nc(Nc4ccc5nccnc5c4P(C)(C)=O)c4cc[nH]c4n3)c3c(c2N2CCC(N4CCOCC4)CC2)CCO3)cn1 [Example 120, dimethyl (6-((2-((5-(1-methyl-1H-pyrazol-4-yl)-4-(4-morpholino-piperidin-1-yl)-2,3-dihydrobenzo-furan-7-yl)amino)-7H-pyrrolo[2,3-d]pyrimidin-4-yl)amino)quinoxalin-5-yl)phosphine oxide] | ≤ 0.05 µM | 0.05 to 0.1 µM | ≤ 0.05 µM
2 | CCN1CCN(C2CCN(c3cc(OC)c(Nc4nc(Nc5ccc6nccnc6c5P(C)(C)=O)c5cc[nH]c5n4)cc3C)CC2)CC1 [Example 61, (6-((2-((4-(4-(4-ethylpiperazin-1-yl)piperidin-1-yl)-2-methoxy-5-methylphenyl)amino)-7H-pyrrolo[2,3-d]pyrimidin-4-yl)amino)quinoxalin-5-yl)dimethyl-phosphine oxide] | ≤ 0.05 µM | > 0.1 µM | 0.05 to 0.1 µM
3 | COc1cc(N(C)CCN(C)C)c(-c2cnn(C)c2)cc1Nc1nc(Nc2ccc3nccnc3c2P(C)(C)=O)c2cc[nH]c2n1 [Example 36, (6-((2-((4-((2-(dimethylamino)ethyl) (methyl)amino)-2-methoxy-5-(1-methyl-1H-pyrazol-4-yl)phenyl)amino)-7H-pyrrolo[2,3-d]pyrimidin-4-yl)amino)quinoxalin-5-yl)dimethyl-phosphine oxide] | ≤ 0.05 µM | > 0.1 µM | ≤ 0.05 µM
4 | COc1cc(N2CCC(N3CCN(C4CC4)CC3)CC2)c(C)cc1Nc1nc(Nc2ccc3nccnc3c2P(C)(C)=O)c2cc[nH]c2n1 [Example 60, (6-((2-((4-(4-(4-cyclopropyl-piperazin-1-yl)piperidin-1-yl)-2-methoxy-5-methylphenyl)amino)-7H-pyrrolo[2,3-d]pyrimidin-4-yl)amino)quinoxalin-5-yl)dimethyl-phosphine oxide] | ≤ 0.05 µM | > 0.1 µM | ≤ 0.05 µM
5 | COc1cc(N2CCN(C)CC2)c(-c2ccsc2)cc1Nc1nc(Nc2ccc3nccnc3c2P(C)(C)=O)c2cc[nH]c2n1 [Example 76, (6-((2-((2-methoxy-4-(4-methylpiperazin-1-yl)-5-(thiophen-3-yl)phenyl)amino)-7H-pyrrolo[2,3-d]pyrimidin-4-yl)amino)quinoxalin-5-yl)dimethyl-phosphine oxide] | ≤ 0.05 µM | > 0.1 µM | > 0.1 µM
6 | COc1nc(N2CCN(C)CC2)c(-c2cnn(C)c2)cc1Nc1nc(Nc2ccc3nccnc3c2P(C)(C)=O)c2cc[nH]c2n1 [Example 44, (6-((2-((2-methoxy-5-(1-methyl-1H-pyrazol-4-yl)-6-(4-methyl-piperazin-1-yl)pyridin-3-yl)amino)-7H-pyrrolo[2,3-d]pyrimidin-4-yl)amino)quinoxalin-5-yl)dimethyl-phosphine oxide] | ≤ 0.05 µM | > 0.1 µM | ≤ 0.05 µM
7 | Cn1cc(-c2cc(N3CCOCC3)c3c(c2Nc2nc(Nc4ccc5nccnc5c4P(C)(C)=O)c4cc[nH]c4n2)OCCO3)cn1 [Example 135, dimethyl (6-((2-((6-(1-methyl-1H-pyrazol-4-yl)-8-morpholino-2,3-dihydrobenzo [b][1,4]dioxin-5-yl)amino)-7H-pyrrolo[2,3-d]pyrimidin-4-yl)amino)quinoxalin-5-yl)phosphine oxide] | > 0.1 µM | > 0.1 µM | > 0.1 µM
8 | COc1cc(N2C[C@H]3C[C@@H]2CO3)c(-c2cnn(C)c2)cc1Nc1nc(Nc2ccc3nccnc3c2P(C)(C)=O)c2cc[nH]c2n1 [Example 27] | ≤ 0.05 µM | > 0.1 µM | ≤ 0.05 µM
9 | CN1CCN(C2CCN(c3cc(OCC(F)(F)F)c(Nc4nc(Nc5ccc6nccnc6c5P(C)(C)=O)c5cc[nH]c5n4)cc3-c3cnn(C)c3)CC2)CC1 [Example 4, dimethyl (6-((2-((5-(1-methyl-1H-pyrazol-4-yl)-4-(4-(4-methylpiperazin-1-yl)piperidin-1-yl)-2-(2,2,2-trifluoroethoxy)phenyl)amino)-7H-pyrrolo[2,3-d]pyrimidin-4-yl)amino)quinoxalin-5-yl) phosphine oxide] | ≤ 0.05 µM | > 0.1 µM | 0.05 to 0.1 µM
10 | COc1cc(N2CCC(N3CCN(C)CC3)CC2)c(-c2cnn(C)c2)cc1Nc1nc(Nc2ccc3nccnc3c2P(C)(C)=O)c2cc[nH]c2n1 [Example 24, (6-((2-((2-methoxy-5-(1-methyl-1H-pyrazol-4-yl)-4-(4-(4-methylpiperazin-1-yl)piperidin-1-yl)phenyl)amino)-7H-pyrrolo[2,3-d]pyrimidin-4-yl)amino)quinoxalin-5-yl)dimethyl-phosphine oxide] | ≤ 0.05 µM | > 0.1 µM | ≤ 0.05 µM
11 | CCn1cc(-c2cc(Nc3nc(Nc4ccc5nccnc5c4P(C)(C)=O)c4cc[nH]c4n3)c(OC)cc2N2CCN(C)CC2)cn1 [Example 47, (6-((2-((5-(1-ethyl-1H-pyrazol-4-yl)-2-methoxy-4-(4-methyl-piperazin-1-yl)phenyl)amino)-7H-pyrrolo[2,3-d]pyrimidin-4-yl)amino)quinoxalin-5-yl)dimethyl-phosphine oxide] | ≤ 0.05 µM | > 0.1 µM | ≤ 0.05 µM
12 | COc1cc(N2CCN(C)CC2)c(-c2ccncc2)cc1Nc1nc(Nc2ccc3nccnc3c2P(C)(C)=O)c2cc[nH]c2n1 [Example 70, (6-((2-((2-methoxy-4-(4-methylpiperazin-1-yl)-5-(pyridin-4-yl)phenyl)amino)-7H-pyrrolo[2,3-d]pyrimidin-4-yl)amino)quinoxalin-5-yl)dimethyl-phosphine oxide] | ≤ 0.05 µM | > 0.1 µM | > 0.1 µM
13 | COc1cc(N2CCN(C)CC2)c(-c2cnn(C)c2)cc1Nc1nc(Nc2ccc3nccnc3c2P(C)(C)=O)c2c(Cl)c[nH]c2n1 [Example 51, (6-((5-chloro-2-((2-methoxy-5-(1-methyl-1H-pyrazol-4-yl)-4-(4-methylpiperazin-1-yl)phenyl)amino)-7H-pyrrolo[2,3-d]pyrimidin-4-yl)amino)quinoxalin-5-yl)dimethyl-phosphine oxide] | – | > 0.1 µM | 0.05 to 0.1 µM
14 | C[C@@H]1CN(c2cc(OCC(F)(F)F)c(Nc3nc(Nc4ccc5nccnc5c4P(C)(C)=O)c4cc[nH]c4n3)cc2-c2cnn(C)c2)C[C@H](C)O1 [Example 10, (6-((2-((4-((2R, 6S)-2,6-dimethyl-morpholino)-5-(1-methyl-1H-pyrazol-4-yl)-2-(2,2,2-trifluoroethoxy)phenyl)amino)-7H-pyrrolo[2,3-d]pyrimidin-4-yl)amino)quinoxalin-5-yl)dimethyl phosphine oxide] | – | > 0.1 µM | ≤ 0.05 µM
15 | Cc1cc(Nc2nc(Nc3ccc4nccnc4c3P(C)(C)=O)c3cc[nH]c3n2)c(OCC(F)(F)F)cc1N1CCC(N2CCOCC2)CC1 [Example 12, dimethyl (6-((2-((5-methyl-4-(4-morpholino-piperidin-1-yl)-2-(2,2,2-trifluoroethoxy)phenyl)amino)-7H-pyrrolo[2,3-d]pyrimidin-4-yl)amino)quinoxalin-5-yl) phosphineoxide] | – | > 0.1 µM | > 0.1 µM
16 | CN1CCN(C2CCN(c3ccc(Nc4nc(Nc5ccc6nccnc6c5P(C)(C)=O)c5cc[nH]c5n4)cc3)CC2)CC1 [Example 58, dimethyl (6-((2-((4-(4-(4-methylpiperazin-1-yl)piperidin-1-yl)phenyl)amino)-7H-pyrrolo[2,3-d]pyrimidin-4-yl)amino)quinoxalin-5-yl)phosphine oxide] | – | > 0.1 µM | 0.05 to 0.1 µM
17 | CN1CCN(c2c(-c3cnn(C)c3)cc(Nc3nc(Nc4ccc5nccnc5c4P(C)(C)=O)c4cc[nH]c4n3)c3c2OCO3)CC1 [Example 129, dimethyl (6-((2-((6-(1-methyl-1H-pyrazol-4-yl)-7-(4-methylpiperazin-1-yl)benzo[d] [1,3]dioxol-4-yl)amino)-7H-pyrrolo[2,3-d]pyrimidin-4-yl)amino)quinoxalin-5-yl)phosphine oxide] | – | > 0.1 µM | ≤ 0.05 µM
18 | COc1cc(N2CCN(C3CC3)CC2)c(-c2cnn(C)c2)cc1Nc1nc(Nc2ccc3nccnc3c2P(C)(C)=O)c2cc[nH]c2n1 [Example 42, (6-((2-((4-(4-cyclopropyl-piperazin-1-yl)-2-methoxy-5-(1-methyl-1H-pyrazol-4-yl)phenyl)amino)-7H-pyrrolo[2,3-d]pyrimidin-4-yl)amino)quinoxalin-5-yl)dimethyl-phosphine oxide] | – | > 0.1 µM | ≤ 0.05 µM
19 | COc1cc(N2CCC(N3CCN(C)CC3)CC2)c(C)cc1Nc1nc(Nc2cnc3ccccc3c2P(C)(C)=O)c2cc[nH]c2n1 [Example 90, (3-((2-((2-methoxy-5-methyl-4-(4-(4-methylpiperazin-1-yl)piperidin-1-yl)phenyl)amino)-7H-pyrrolo[2,3-d]pyrimidin-4-yl)amino)quinolin-4-yl)dimethyl-phosphine oxide] | – | > 0.1 µM | > 0.1 µM

Source: patent publication US20240067668A1, “HETEROARYL DERIVATIVE COMPOUND AND USE THEREOF” (VORONOI INC., priority 2020, published 2024)
